What was measured:
PyMT tumorspheres = experiment: PyMT tumorsphere viability, apoptosis, cell cycle and western blot; type: cell-based, mouse
Experimental: FIG. 14A, Spheres were treated with vehicle or indicated concentrations of C26-A6 for 1 week. The viability of the spheres was then quantified by MTT assay.
For FIGS. 14B-14I, similar sphere assay as in FIG. 14A was performed. n≥3 independent experiments. Data represent mean±SEM and significance determined by two tailed Student's t-test for all panels in FIGS. 14B-14I.
FIG. 15C, Sphere assay was performed and treated with vehicle and C26-A6 as in FIG. 14A. The spheres were collected for western blot to analyze the expression of the candidates.
To obtain insights into the molecular mechanism underlying C26-A6 treatment-induced reduction of cell viability and increase of apoptosis, in vitro sphere assays were employed. […] To further explore the downstream effectors of tumor-suppressive response to C26-A6, GSEA analysis of PyMT tumor with or without C26-A6 treatment was performed.

orthotopic PyMT tumors = experiment: Established orthotopic PyMT tumors in FVB female mice; type: in vivo
Experimental: FIG. 5B, Tumor size was determined. Vehicle, n=10 mice, C26-A6, n=12 mice. Significance determined by Two-Way Repeated Measures ANOVA test.
FIG. 5C, Tumor mass was determined. Vehicle, n=10 mice, C26-A6, n=12 mice. Size bar, 2 cm.
FIG. 5D, H&E staining was performed with lungs, and metastatic nodules were counted. The metastatic nodules of the representative lungs were highlighted with red and blue respectively. Vehicle, n=10 lungs; C26-A6, n=12 lungs. Size bar, 5 mm.
FIG. 13D, Primary tumors from experiment in FIG. 5B were stained with Ki67 and Cleaved-Caspase 3 (Casp-3) antibodies. Size bar, 100 μm.
FIG. 13E, Positive cells were quantified. Data represent mean±SEM. n=6 mice.
Next, established orthotopic PyMT tumors^4 were treated with vehicle or C26-A6 (FIG. 5A). […] The results were confirmed with SCP28 xenograft tumor model in NSG mice (FIGS. 13A-13C).
Methods: Animal models. All procedures involving mice and experimental protocols were approved by the Institutional Animal Care and Use Committees (IACUC) of Princeton University. According to the approved IACUC protocol (1881-20), the primary humane endpoint of tumor burden for an individual mouse is 20 mm in any dimension or a total volume of 4000 mm^3 for mice with multiple tumors. Mice were euthanized before exceeding the limit of tumor burden in this study. In the facility, mice were maintained at 20-22° C. with 14 h:10 h light:dark cycles at 40-70% relative humidity. The Mtdh^fl/fl ES cell lines generated by Mtdh targeting vector (CSD48311) was obtained from the KOMP Repository. The ES cells were injected into the C57BL/6 blastocysts followed by confirmation of germline transmission. Mtdh^fl/fl mice were crossed with FLPe mice to remove the selection marker in the vector. Genotyping (Forward primer: […] (SEQ ID NO:21); Reverse primer: […] (SEQ ID NO:22)) was performed to identify positive mice before they were crossed to other strains that were indicated in each experiment. FLPe (Stock No. 003946), MMTV-PyMT (Stock No. 002374), MMTV-WNT1 (Stock No. 002934), C3 (Stock No. 013591), UBC-Cre^ERT2 (Stock No. 007001), FVB (Stock No. 001800), Balb/C (Stock No. 000651), Athymic nude (Nude) (Stock No. 002019), and NOD Scid Gamma (NSG) (Stock No. 005557) were obtained from Jackson Laboratory. Mice in C57BL/6 background were backcrossed to FVB for at least 10 generations to change the background. […] The tumors were measured by calipers for calculation of tumor volumes (length×width^2/2). For cell lines that are stably labeled with a firefly luciferase expressing vector, lung metastases were monitored by bioluminescent imaging (BLI) and images were processed with Living Image 3D Analysis (version 1.0). […]

[1] = 15 mg/kg i.v., continuous treatment

COc1ccc(Cl)cc1S(=O)(=O)Nc1cccn2nc(C)nc12 [Analog C26-A6]
Cdc20, Plk1, and c-Myc expression (western blot) (PyMT tumorspheres): down-regulated | cell cycle status (PyMT tumorspheres; 200 μM): induced G2/M cell cycle arrest | survival (live cells, apoptosis) (PyMT tumorspheres; 200 μM): significantly reduced survival | sphere viability (MTT assay), tumorspheres versus MECs (PyMT tumorspheres; indicated concentrations, 1 week): more susceptible | primary tumor growth (orthotopic PyMT tumors; [1]): significantly inhibited | spontaneous lung metastasis (orthotopic PyMT tumors; [1]): significantly inhibited | tumor apoptosis (cleaved-Caspase 3) (orthotopic PyMT tumors; IHC of primary tumors): induced tumor apoptosis | tumor proliferation (Ki67) (orthotopic PyMT tumors; IHC of primary tumors): reduced tumor proliferation

Source: US20240398767A1, “INHIBITORS OF THE MTDH-SND1 PROTEIN COMPLEX FOR CANCER THERAPY” (The Trustees of Princeton University, priority 2021, published 2024)
